Laboratory results reported in PubChem BioAssay AID2060506 (Molecular Pharmacology Branch, DTP, NCI, 2025).

Tested on: 598228-144-R-J1-PDC complex spheroid viability
Assay: Anticancer human tumor 598228-144-R-J1-PDC patient-derived serous endometrial adenocarcinoma cell line growth inhibition [GQUAD]
Details: for IC50: curve of first compound; for viability, T/C: stronger effect = lower value
In short: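 Viability of tumor cells grown as complex spheroids with endothelial and stromal cells, exposed to drug combinations. Top concentration at or near clinical Cmax (else 10 microM), diluted in half-log increments.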

[1] = second compound 0.0316 µM, first compound 0.0316 µM
[2] = second compound 0.0316 µM, first compound 0.1 µM
[3] = second compound 0.0316 µM, first compound 0.316 µM
[4] = second compound 0.0316 µM, first compound 1 µM
[5] = second compound 0.0316 µM, first compound 3.16 µM
[6] = second compound 0.0316 µM, first compound 10 µM
[7] = second compound 0.1 µM, first compound 0.0316 µM
[8] = second compound 0.1 µM, first compound 0.1 µM
[9] = second compound 0.1 µM, first compound 0.316 µM
[10] = second compound 0.1 µM, first compound 1 µM
[11] = second compound 0.1 µM, first compound 3.16 µM
[12] = second compound 0.1 µM, first compound 10 µM
[13] = second compound 0.316 µM, first compound 0.0316 µM
[14] = second compound 0.316 µM, first compound 0.1 µM
[15] = second compound 0.316 µM, first compound 0.316 µM
[16] = second compound 0.316 µM, first compound 1 µM
[17] = second compound 0.316 µM, first compound 3.16 µM
[18] = second compound 0.316 µM, first compound 10 µM
[19] = second compound 1 µM, first compound 0.0316 µM
[20] = second compound 1 µM, first compound 0.1 µM
[21] = second compound 1 µM, first compound 0.316 µM
[22] = second compound 1 µM, first compound 1 µM
[23] = second compound 1 µM, first compound 3.16 µM
[24] = second compound 1 µM, first compound 10 µM
[25] = second compound 3.16 µM, first compound 0.0316 µM
[26] = second compound 3.16 µM, first compound 0.1 µM
[27] = second compound 3.16 µM, first compound 0.316 µM
[28] = second compound 3.16 µM, first compound 1 µM
[29] = second compound 3.16 µM, first compound 3.16 µM
[30] = second compound 3.16 µM, first compound 10 µM
[31] = second compound 10 µM, first compound 0.0316 µM
[32] = second compound 10 µM, first compound 0.1 µM
[33] = second compound 10 µM, first compound 0.316 µM
[34] = second compound 10 µM, first compound 1 µM
[35] = second compound 10 µM, first compound 3.16 µM
[36] = second compound 10 µM, first compound 10 µM
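Note: spheroids exposed to the agents for one week before reading.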
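Throughout, for viability, T/C: percent of vehicle DMSO control viability so 100% = untreated growth.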

For CC1COCCN1c1cc(-c2ccnn2C)c2ccnc(-c3ccn[nH]3)c2n1 (stereo unspecified) + Cc1cnc(CNC(=O)c2c(=O)c3ccc(N4CCCN(C)CC4)nc3n3c2sc2ccccc23)cn1, the IC50 (second compound 0.0316 µM) was 56.5 nM, the IC50 (second compound 0.1 µM) was < 31.6 nM and the IC50 (second compound 0.316 µM) was 66 nM. The IC50 (second compound 1 µM) was 38.7 nM, the IC50 (second compound 3.16 µM) was < 31.6 nM and the IC50 (second compound 10 µM) was < 31.6 nM. The viability, T/C [1] was 52%, the viability, T/C [2] was 48.3% and the viability, T/C [3] was 44.7%. It also gave a viability, T/C [4] of 29.7%, a viability, T/C [5] of 33.5% and a viability, T/C [6] of 30.9%. The viability, T/C [7] was 47.9%, the viability, T/C [8] was 38.4% and the viability, T/C [9] was 43%. For the same molecule, the viability, T/C [10] was 33.2%, the viability, T/C [11] was 38.3% and the viability, T/C [12] was 25.8%. For the same molecule, the viability, T/C [13] was 58.2%, the viability, T/C [14] was 40.6% and the viability, T/C [15] was 42.9%. The viability, T/C [16] was 32.5%, the viability, T/C [17] was 39.1% and the viability, T/C [18] was 21.3%. It also gave a viability, T/C [19] of 52.3%, a viability, T/C [20] of 42% and a viability, T/C [21] of 43.2%. It also gave a viability, T/C [22] of 33%, a viability, T/C [23] of 28.2% and a viability, T/C [24] of 22.2%. For the same molecule, the viability, T/C [25] was 45.8%, the viability, T/C [26] was 26.1% and the viability, T/C [27] was 33.6%. It also gave a viability, T/C [28] of 23.4%, a viability, T/C [29] of 20.7% and a viability, T/C [30] of 4.32%. It also gave a viability, T/C [31] of 23.5%, a viability, T/C [32] of 17.4% and a viability, T/C [33] of 8.76%. The viability, T/C [34] was 6.24%, the viability, T/C [35] was 0.97% and the viability, T/C [36] was 8.07%.

Molecule CC1COCCN1c1cc(C2(S(C)(=N)=O)CC2)nc(-c2ccnc3[nH]ccc23)n1 (stereo unspecified) + Cc1cnc(CNC(=O)c2c(=O)c3ccc(N4CCCN(C)CC4)nc3n3c2sc2ccccc23)cn1 has an IC50 (second compound 0.0316 µM) of 6990 nM, an IC50 (second compound 0.1 µM) of 3710 nM and an IC50 (second compound 0.316 µM) of 2910 nM. The IC50 (second compound 1 µM) was 3270 nM, the IC50 (second compound 3.16 µM) was < 31.6 nM and the IC50 (second compound 10 µM) was < 31.6 nM. For the same molecule, the viability, T/C [1] was 79.9%, the viability, T/C [2] was 93.9% and the viability, T/C [3] was 71.1%. It also gave a viability, T/C [4] of 62.4%, a viability, T/C [5] of 87.8% and a viability, T/C [6] of 36.9%. For the same molecule, the viability, T/C [7] was 74%, the viability, T/C [8] was 61.2% and the viability, T/C [9] was 72.7%. It also gave a viability, T/C [10] of 68.7%, a viability, T/C [11] of 53.1% and a viability, T/C [12] of 30.2%. The viability, T/C [13] was 83.1%, the viability, T/C [14] was 63.8% and the viability, T/C [15] was 62.8%. It also gave a viability, T/C [16] of 55.9%, a viability, T/C [17] of 57.8% and a viability, T/C [18] of 38.1%. It also gave a viability, T/C [19] of 65.2%, a viability, T/C [20] of 57.2% and a viability, T/C [21] of 58.7%. It also gave a viability, T/C [22] of 60.9%, a viability, T/C [23] of 49.3% and a viability, T/C [24] of 32.4%. The viability, T/C [25] was 48.8%, the viability, T/C [26] was 49.9% and the viability, T/C [27] was 51.8%. It also gave a viability, T/C [28] of 39.9%, a viability, T/C [29] of 49.2% and a viability, T/C [30] of 26.4%. The viability, T/C [31] was 41.7%, the viability, T/C [32] was 30.1% and the viability, T/C [33] was 34.1%. For the same molecule, the viability, T/C [34] was 15.1%, the viability, T/C [35] was 33.7% and the viability, T/C [36] was 6%.

COc1ccc([C@@H](O)c2cc(-c3ncnc4cc(N5CCOCC5)ccc34)c(F)cc2Cl)nn1 + Cc1cnc(CNC(=O)c2c(=O)c3ccc(N4CCCN(C)CC4)nc3n3c2sc2ccccc23)cn1 gave an IC50 (second compound 0.0316 µM) of 2710 nM, an IC50 (second compound 0.1 µM) of 1440 nM and an IC50 (second compound 0.316 µM) of 1040 nM. For the same molecule, the IC50 (second compound 1 µM) was 794 nM, the IC50 (second compound 3.16 µM) was < 31.6 nM and the IC50 (second compound 10 µM) was < 31.6 nM. For the same molecule, the viability, T/C [1] was 105%, the viability, T/C [2] was 80.9% and the viability, T/C [3] was 66.6%. It also gave a viability, T/C [4] of 66.5%, a viability, T/C [5] of 52.3% and a viability, T/C [6] of 33.9%. The viability, T/C [7] was 67%, the viability, T/C [8] was 70.4% and the viability, T/C [9] was 64.3%. The viability, T/C [10] was 51.7%, the viability, T/C [11] was 43.5% and the viability, T/C [12] was 33%. The viability, T/C [13] was 63.2%, the viability, T/C [14] was 63.5% and the viability, T/C [15] was 62.7%. The viability, T/C [16] was 49.1%, the viability, T/C [17] was 35.3% and the viability, T/C [18] was 25.5%. For the same molecule, the viability, T/C [19] was 65.9%, the viability, T/C [20] was 61.6% and the viability, T/C [21] was 51.6%. It also gave a viability, T/C [22] of 46.1%, a viability, T/C [23] of 42% and a viability, T/C [24] of 14.2%. For the same molecule, the viability, T/C [25] was 50%, the viability, T/C [26] was 36.8% and the viability, T/C [27] was 41.9%. It also gave a viability, T/C [28] of 31.6%, a viability, T/C [29] of 20.9% and a viability, T/C [30] of 0.39%. It also gave a viability, T/C [31] of 35.2%, a viability, T/C [32] of 40.2% and a viability, T/C [33] of 19.1%. The viability, T/C [34] was 0.71%, the viability, T/C [35] was 0.33% and the viability, T/C [36] was 0.26%.
